“Also recorded” adds a separate entry of the source.
Key:
[1] = test system: rats; experiment: Spontaneous activity (ambulatory and non-ambulatory movements) after icv administration, Example IV; format: in vivo, rat
Procedure: To determine the effect of TPI 1361-17 on spontaneous activity on rats, intraventricular cannulated rats were acclimatized to the testing situation. […] Ambulatory movements and non-ambulatory movements were monitored for 60 minutes upon administration of five nmol TPI 1361-17 or ACSF (FIGS. 4A, 4B).
For these experiments, ambulatory movements were recorded using a Hamilton-Kinder Activity Monitor (with the infrared beams in a 4×8 configured frame). Locomotion was quantified in transparent polycarbonate cages (32×26×20 cm) placed within the activity frames. Animal position was detected by two dimensional beam breaks. The ambulation was tabulated as a movement that results in the change of location. All other beam breaks are categorized as non-ambulatory, fine movement. Animals were acclimatized to the novel home cage-environment for 60 minutes before injection, then were removed, injected and immediately replaced in the same cage, and monitoring began. Locomotion was measured for 60 minutes after the ICV administration of either ACSF or 5 nmol TPI 1361-17.
For animal studies, adult male Sprague-Dawley rats weighing 200-300g were obtained from Charles River Laboratories (Wilmington, Mass.), bearing a 23-gauge stainless steel cannula placed into the right lateral ventricle. […]

[2] = test system: rats; experiment: MCH-induced food intake after icv administration; format: in vivo, rat
Procedure: To determine inhibitory effects of TPI 1361-17 on MCH-induced food intake, rats were habituated to a wire bottom cage for more than 3 weeks prior to the experiment. Experiments were carried out from 6 a.m. to 7 a.m. when rats were satiated. […] On the other hand, five nmol of TPI 1361-17 suppressed cumulative food intake by 75% even at 4h (FIG. 5B).
To determine the effects of TPI 1361-17 on MCH-induced food intake, rats were randomly divided into three groups: 1) TPI 1361-17 (dissolved in DMSO) and 2 nmol of MCH; 2) MCH 2 nmol, 3) ACSF. Each mixture contained a DMSO equivalent concentration to that of the antagonist solution (up to 5% (v/v)). Ten μl of each solution was administered into lateral ventricle for 2 minutes. The injections were done between 7:00-8:00 a.m., and food intake was monitored for 4 h after the injection.
For animal studies, adult male Sprague-Dawley rats weighing 200-300g were obtained from Charles River Laboratories (Wilmington, Mass.), bearing a 23-gauge stainless steel cannula placed into the right lateral ventricle. Rats were housed individually and maintained on a 12 h light-dark cycle (6:00 am-6:00 pm light) with free access to tap water and rat chaw (PROLAB RMH 2500, containing 23.0% protein, 4.5% fat, gross energy 4.5 kcal/g. PMI nutrition international, LLC. Brentwood, Mo.). Prior to all studies, rats were handled and habituated for 7 days, and 10 μl of artificial cerebrospinal fluid (ACSF: NaCl 124, KCl 5, CaCl2 2.4 MgSO4 2, KH2PO4 1.25, NaHCO3 26 and glucose 10, in mM) was injected through the cannula to minimize stress effects at the time of the experiment. Cannula placement was confirmed in all animals by evaluating the response to 50 ng of angiotensin II. Only animals drinking more than 5 ml of water in 1 h were used in feeding studies.

[3] = test system: rats; experiment: Spontaneous food and water intake after 1 hour deprivation, Example VIII; format: in vivo, rat; details: 10 nM i.c.v., start of dark cycle; for 30 minute food intake following 1 hour food/water deprivation, TPI treated versus control: b181 words it as control greater than treated, p less than 0.005
Procedure: In this example, adult male Sprague-Dawley rats, weighing 350-400 g were randomly divided into two (2) groups of eight (8) rats each (Groups I and II). The animals were housed individually in a room having an ambient temperature of 20 degrees C., a light cycle from 07:00 to 19:00 each day and a dark cycle from 19:00 to 07:00.
In a first experiment, food (rat chow) and water were made available ad libitum except during a 1 hour food/water deprivation period from 18:00 to 19:00. At the end of the 1 hour food/water deprivation period the animals in Group I (n=8) received 0.9% saline by i.c.v. injection and the animals in Group II (n−8) received 10 nM TPI 1361-17 (Formula IV) by i.c.v. injection. Immediately after dosing, and upon commencement of the darkness cycle, food (rat chow) and water were again made available ad libitum and food and water intake were measured for the next thirty (30) minutes. Data were compared using the non-parametric t-Test with the 0.05 level of probability and below being defined as significant.

[4] = target: T1, neuropeptide Y2 (Homo sapiens, UniProt P49146); experiment: Selectivity versus neuropeptide Y2; format: cell-based
T1 sequence (P49146 1-381): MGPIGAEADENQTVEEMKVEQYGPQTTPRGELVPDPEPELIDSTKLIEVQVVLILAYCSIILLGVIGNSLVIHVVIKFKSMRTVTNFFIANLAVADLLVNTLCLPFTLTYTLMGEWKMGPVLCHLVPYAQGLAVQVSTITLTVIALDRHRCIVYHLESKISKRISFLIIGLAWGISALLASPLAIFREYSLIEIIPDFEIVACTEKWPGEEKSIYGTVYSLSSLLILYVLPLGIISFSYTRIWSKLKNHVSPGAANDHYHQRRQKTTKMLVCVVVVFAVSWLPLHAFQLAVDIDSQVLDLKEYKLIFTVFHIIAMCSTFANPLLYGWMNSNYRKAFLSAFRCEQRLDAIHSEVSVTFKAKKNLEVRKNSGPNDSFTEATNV

[5] = test system: rats; experiment: Spontaneous food intake after icv administration, Example IV; format: in vivo, rat; details: 5 nmol icv
Procedure: To determine inhibitory effects of TPI 1361-17 on spontaneous food intake, TPI 1361-17 (5 nmol) was administered icv and food intake was measured 0.5 h, 1 h, 2 h, and 4 h after the injection. Food intake was quantified either at the start of either the dark phase, which is considered similar to natural conditions, or the light phase. To synchronize initiation of the food intake and to measure the efficiency of TPI 1361-17, rat food pellets were removed for different lengths of time before the injection. It was observed that TPI 1361-17 reduced spontaneous food intake of rats that have been fasted for 1 hr before the dark phase by 37%. This inhibitory effect was detected within the first 30 minutes of feeding and is not detected later (FIG. 6A).
The two groups of rats that were tested at the beginning of the dark phase were starved for 1 h or 4 h before, being injected with 5 nmol of antagonist or ACSF between 6:00-7:00 p.m. Animals had free access to water. Fifteen minutes after injection, container of regular low-fat diet were placed in the cage, and food consumption was monitored for 4 h. The group of rats that were injected at the beginning of the light phase was starved overnight before being injected at 5 nmol of antagonist or ACSF. Monitoring of the food consumption was identical to that described for the rats starved during the dark phase.
For animal studies, adult male Sprague-Dawley rats weighing 200-300g were obtained from Charles River Laboratories (Wilmington, Mass.), bearing a 23-gauge stainless steel cannula placed into the right lateral ventricle. Rats were housed individually and maintained on a 12 h light-dark cycle (6:00 am-6:00 pm light) with free access to tap water and rat chaw (PROLAB RMH 2500, containing 23.0% protein, 4.5% fat, gross energy 4.5 kcal/g. PMI nutrition international, LLC. Brentwood, Mo.). […]

## C[C@@H](CNCc1ccccc1)N1C[C@H](CCCNC(=N)N)N(CCc2cccc(F)c2)C1=S [TPI 1361-17, N-(3-{(4S)-1-[(1S)-2-(benzylamino)-1-methylethyl]-3-[2-(3-fluorophenyl)ethyl]-2-thioxoimidazolidin-4-yl}propyl)guanidine]
[1]; 5 nmol icv, 60 minutes
  Total amounts of non-ambulatory or ambulatory movements versus ACSF: no significant differences
[1]; five or one nmol icv
  Detectable changes in movement: did not exhibit any detectable changes in movement; also recorded: did not affect locomotion or fine movements
[2]; 1 nmol icv with 2 nmol MCH, reversed over the next two hours
  MCH-induced food intake at the low dose: decreased MCH-induced food intake for 1 h and 2h
[2]; 5 nmol icv with 2 nmol MCH, at 4h
  Suppression of cumulative MCH-induced food intake: 75%
[2]; dose dependent, icv, SD rats, beginning of light phase
  Reduction of MCH-induced food intake, maximal: up to 75%
[2]; icv
  Duration of the effect on MCH-induced food intake: over 4 h
[3]
  30 minute water intake following 1 hour food/water deprivation, TPI treated versus control: not significantly different
  30 minute food intake following 1 hour food/water deprivation, TPI treated versus control: significantly greater
[3]; listed as TPI
  30 minute food intake following 1 hour food/water deprivation, TPI treated versus control: significant decrease
  30 minute water intake following 1 hour food/water deprivation, TPI treated versus control: non-significant decrease
[4]
  Selectivity for MCH1R compared with neuropeptide Y2: more than 1,000 fold
[5]; fasted 1 hr before dark phase, first 30 minutes of feeding
  Reduction of spontaneous food intake: 37%
[5]; fasted 4 h before the dark phase
  Effect on spontaneous food intake: no apparent effect
[5]; fasted 12 hrs before the light phase
  Effect on spontaneous food intake: no apparent effect

Source: US8372848B2, “Melanin-concentrating hormone receptor antagonists and methods of use” (Mixture Sciences, Inc., priority 2004, dated 2013)
